Values after ≈ are worked out from the molar mass of the structure shown. Values joined by “and” are separate entries in the source; they are usually repeats but may differ in a detail not shown here. Equal values may be shown once. Read-outs that look alike come from different tables or passages of the source.
Key:
[1] = test system: non-replicating (NRP) M. tuberculosis; test: LORA, MIC90 against non-replicating M. tuberculosis; format: cell-based, Mycobacterium tuberculosis
Protocol: The LORA method was used to determine the MIC90 of compounds against latent/non-replicating (NRP) mycobacteria. According to Wayne and Sohaskey (2001) [18], under a low-oxygen atmosphere, NRP mycobacteria, containing the plasmid pFCA-ABCDE that encodes a luminescent protein in aerated environments, were plated in a 96-well plate with 100 mL of compounds in a range of 0.39 to 100 μg/mL.

[2] = test system: latent tuberculosis infection (LTBI); conditions: cited from earlier work; for Efficacy in preventing progression to active tuberculosis infection: LTBI patients, monotherapy, ref Huaman et al. (2019) [28]
[3] = test system: M. tuberculosis; test: Time-kill curve; format: cell-based, Mycobacterium tuberculosis; conditions: MIC and 2× MIC, 15 days
[4] = test system: Mycobacterium tuberculosis H37Rv (ATCC 27294), replicating; test: MIC90 against replicating M. tuberculosis (resazurin microtiter assay, REMA); format: cell-based; conditions: 7 days; for MIC90: Mycobacterium tuberculosis, 168 h
[5] = test system: MRC-5 (ATCC CCL-171) cells
[6] = test system: J774A.1 (ATCC TIB-67) cells; test: Cytotoxicity against macrophage cells (resazurin); format: cell-based, mice; conditions: for IC50: Mus musculus
[7] = test system: MRC-5 (ATCC CCL-171) cells; test: cells; conditions: Homo sapiens
[8] = test system: Salmonella Typhimurium (ATCC 14028); test: Activity spectrum, microdilution; format: cell-based; conditions: 24 h, absorbance 600 nm
[9] = test system: Mycobacterium smegmatis mc2155 (ATCC 700084); test: MIC90 against M. smegmatis (resazurin); format: cell-based; conditions: for Spectrum activity, M. smegmatis: 2 days, resazurin
[10] = test system: Staphylococcus aureus (ATCC 6538); test: Activity spectrum, microdilution; format: cell-based; conditions: 24 h, absorbance 600 nm
[11] = test system: intramacrophagic M. tuberculosis H37Rv; test: Intramacrophagic activity (J774A.1 macrophages infected with M. tuberculosis H37Rv, CFU count); format: cell-based, Mycobacterium tuberculosis; conditions: 5× MIC (6.15 μM), 3 days of exposure
[12] = test system: Escherichia coli (ATCC 11775); test: Activity spectrum, microdilution; format: cell-based; conditions: 24 h, absorbance 600 nm
[13] = test system: Pseudomonas aeruginosa (ATCC 13388); test: Activity spectrum, microdilution; format: cell-based; conditions: 24 h, absorbance 600 nm
[14] = Mycobacterium tuberculosis, LORA, low-oxygen
[15] = J774A.1 ATCC TIB-67, 24 h, J774A.1, 24 h
[16] = J774A.1 ATCC TIB-67, 48 h, J774A.1, 48 h
[17] = J774A.1 ATCC TIB-67, 72 h, J774A.1, 72 h

Structure (SMILES) | MIC90 [1, 14] | Efficacy in preventing progression to active tuberculosis infection [2] [%] | death profile in time-kill curve (bactericidal = 3 log10 CFU/mL decrease) [3] | MIC90 [4] | IC50 [6, 15] [µg/mL] | IC50 [6, 16] [µg/mL] | IC50 [6, 17] [µg/mL] | IC50 ([7]; MRC5, 24 h) [µg/mL] | IC50 ([7]; MRC5, 48 h) [µg/mL] | IC50 ([7]; MRC5, 72 h) [µg/mL] | Spectrum activity, S. typhimurium [8] [µg/mL] | Spectrum activity, M. smegmatis [9] [µg/mL] | Spectrum activity, S. aureus [10] [µg/mL] | Spectrum activity, E. coli [12] [µg/mL] | Spectrum activity, P. aeruginosa [13] [µg/mL] | further results
NNC(=O)c1ccncc1 [Isoniazid] | > 300 µM and > 45 µg/mL | 90 | bacteriostatic | 0.44 µM and 0.06 µg/mL | > 100 | > 100 | > 100 | > 100 | > 100 | > 100 |  |  |  |  |  | inhibition of non-replicating bacteria ([1]; LORA assay): non-inhibition; MIC90 ([1]; LORA, low-oxygen): >328.13 µM; TB activation after LTBI treatment ([2]; share of cases, INH monotherapy): 10%; IS (selectivity index) [5]: >1666.66; IS (selectivity index) [6]: >1666.66
CC1=NN(C(=O)c2ccncc2)C(O)(c2ccccc2)C1 (stereo not drawn) [Hydrazone 14] | 6.31 µM and 1.77 µg/mL |  |  | 1.23 µM and 0.35 µg/mL | > 100 | 83.3 ± 28.9 (≈ 296 µM) | 81.8 ± 31.5 (≈ 291 µM) | > 100 | > 100 | > 100 | >100 | >25.0 | >100 | >100 | >100 | growth inhibition of M. smegmatis [9]: unable to inhibit the mycobacteria growth; MIC90 Non-Replicating ([1]; LORA, low-oxygen): 6.31 ± 5.72 µM (≈ 1.78 µg/mL); MIC90 Replicating [4]: 1.23 ± 0.53 µM (≈ 0.346 µg/mL); cytotoxicity [5]: no detectable cytotoxicity; IS (selectivity index) ([5]; IC50/MIC90, MRC-5, 24 h): >289.02; IS (selectivity index) ([5]; IC50/MIC90, MRC-5, 48 h): >289.02; IS (selectivity index) ([5]; IC50/MIC90, MRC-5, 72 h): >289.02; intramacrophagic inhibition (log reduction vs untreated) [11]: 0.5 log10 CFU/mL; IS (selectivity index) ([6]; IC50/MIC90, J774A.1, 24 h): >289.02; IS (selectivity index) ([6]; IC50/MIC90, J774A.1, 48 h): 240.88; IS (selectivity index) ([6]; IC50/MIC90, J774A.1, 72 h): 236.46
CO[C@H]1/C=C/O[C@@]2(C)Oc3c(C)c(O)c4c(O)c(c(/C=N/N5CCN(C)CC5)c(O)c4c3C2=O)NC(=O)/C(C)=C\C=C\[C@H](C)[C@H](O)[C@@H](C)[C@@H](O)[C@@H](C)[C@H](OC(C)=O)[C@@H]1C [Rifampicin] | < 0.36 µM and < 0.3 µg/mL | ~90 | bacteriostatic | 0.05 µM and 0.04 µg/mL |  |  |  |  |  |  |  | 2.4 ± 1.5 |  |  |  | 
CNC(C)C1CCC(N)C(OC2C(N)CC(N)C(OC3OCC(C)(O)C(NC)C3O)C2O)O1 (stereo not drawn) [Gentamicin] |  |  |  |  |  |  |  |  |  |  | 1.16 ± 0.38 |  | 3.97 ± 2.35 | 5.07 ± 0.14 | 2.02 ± 0.66 | 

— paper PMC9598318, “Latent Tuberculosis: A Promising New Compound to Treat Non-Replicating and Intramacrophagic Mycobacteria” (Biomedicines, 2022)
